The values below come from patent US9566351B2, “Molecular containers and methods of making and using same” (University of Maryland, College Park, priority 2010, dated 2017).

“And” between values parts separate entries of the source, which are not always exact repeats. Equal entries are not always repeated. Where two headings read alike, the source gives them in different places.

One data set has as its system TA98 strain. Conditions: Salmonella typhimurium.
In data set [1] the test system is HEK293. Conditions: human, 48 h, 1 mM.
Data set [2] has as its system HepG2. Description: AK (adenylate kinase) release cytotoxicity assay, HepG2. It counts as cell-based, human. The conditions noted are these: 1 mM, untreated population 60%.
In data set [3] the test system is HepG2. The conditions noted are these: human, 48 h, 1 mM.
In data set [4] the test system is HEK293. Conditions: human, 48 h, 1 mM. This is another data set of the same source.
The conditions of data set [5]: mouse, in vivo.
The conditions of data set [6]: mouse, in vivo, iv, 3.2 mg/kg.
The nature of data set [7]: Phase-solubility of pharmaceutical agents with Motor2 (1H NMR). The conditions noted are these: drug solubilized with Motor2; 20 mM sodium phosphate buffer (pH=7.4); phase diagram.
The nature of data set [8]: Pharmacokinetic study of Motor1.ABZ, IP route (plasma, HPLC). The conditions noted are these: for plasma concentration: IP.
A short description of data set [9]: Pharmacokinetic study of Motor1.ABZ, IV route (plasma, HPLC). The conditions noted are these: for plasma concentration: IV.
The subject of data set [10] is TA100. Description: Ames test, strain TA100. The conditions noted are these: −S9.
Data set [11] concerns S. typhimurium strain TA1535. Nature of the data set: Ames test, strain TA1535. Conditions: −S9.
The conditions of data set [12]: drug with Motor1; 20 mM sodium phosphate buffer (pH=7.4); phase diagram.
For data set [13] the following is noted: guest with Motor1; 20 mM sodium phosphate, pH = 7.4; direct UV/Vis titration (dyes) or indicator displacement.
The next data set has as its system TA1537 strain. Nature of the data set: Ames test, strain TA1537.
Data set [14] deals with S. typhimurium strain TA1535. The conditions noted are these: Salmonella typhimurium, 10 μg/plate.
In data set [15] the test system is TA100. The conditions noted are these: Salmonella typhimurium, 10 μg/plate.
The target of the next data set is T1, hERG (Homo sapiens, UniProt Q12809).
T1 construct: host or cells: transfected HEK-293 cells
T1 sequence (Q12809 whole entry): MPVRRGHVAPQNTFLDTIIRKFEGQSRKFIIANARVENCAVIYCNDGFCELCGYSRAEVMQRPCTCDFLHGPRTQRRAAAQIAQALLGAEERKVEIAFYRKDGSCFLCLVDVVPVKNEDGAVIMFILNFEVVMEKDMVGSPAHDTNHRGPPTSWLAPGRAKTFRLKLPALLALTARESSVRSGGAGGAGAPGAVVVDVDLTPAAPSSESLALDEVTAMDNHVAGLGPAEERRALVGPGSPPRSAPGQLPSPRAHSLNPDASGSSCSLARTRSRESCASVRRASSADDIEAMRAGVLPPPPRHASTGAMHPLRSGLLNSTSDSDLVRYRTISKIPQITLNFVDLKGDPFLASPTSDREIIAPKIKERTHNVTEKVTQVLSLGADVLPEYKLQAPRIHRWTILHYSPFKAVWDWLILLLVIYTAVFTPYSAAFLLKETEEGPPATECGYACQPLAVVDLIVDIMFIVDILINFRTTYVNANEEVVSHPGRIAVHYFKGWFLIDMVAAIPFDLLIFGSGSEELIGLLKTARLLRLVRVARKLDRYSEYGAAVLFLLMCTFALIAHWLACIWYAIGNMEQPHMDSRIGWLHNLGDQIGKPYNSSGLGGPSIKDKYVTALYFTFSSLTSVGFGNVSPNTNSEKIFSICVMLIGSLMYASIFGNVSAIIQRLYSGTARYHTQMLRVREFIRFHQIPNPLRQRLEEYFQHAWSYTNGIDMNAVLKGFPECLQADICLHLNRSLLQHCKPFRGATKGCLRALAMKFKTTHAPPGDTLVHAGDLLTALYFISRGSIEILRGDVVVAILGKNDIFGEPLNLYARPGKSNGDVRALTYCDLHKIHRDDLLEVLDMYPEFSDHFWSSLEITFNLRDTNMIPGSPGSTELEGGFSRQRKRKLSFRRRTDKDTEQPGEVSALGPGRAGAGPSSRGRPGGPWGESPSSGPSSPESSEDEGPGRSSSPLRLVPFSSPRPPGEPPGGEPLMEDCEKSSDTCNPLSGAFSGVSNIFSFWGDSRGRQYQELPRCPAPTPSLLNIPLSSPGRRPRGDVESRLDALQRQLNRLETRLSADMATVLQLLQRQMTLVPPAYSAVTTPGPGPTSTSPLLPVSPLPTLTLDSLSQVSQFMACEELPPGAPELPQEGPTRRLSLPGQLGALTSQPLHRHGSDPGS
The conditions noted are these: transfected HEK-293 cells; HP-β-CD up to 4.2 mg/mL; cited from earlier work.

The conditions of data set [16]: aqueous solution; cited from earlier work.
The next data set relates to Hela. Description: In vitro bioactivity of Paclitaxel complexed with Motor1, Hela. Format: cell-based. Conditions: Paclitaxel 0.6 mM complexed, Paclitaxel 0.002 mM alone, Motor1 5 mM alone.
For data set [17] the following is noted: Motor1 toward drug; 1:1 inclusion complex; Ka=Slope/[S0(1−Slope)].
The conditions of data set [18]: Motor2 toward drug; 1:1 inclusion complex; Ka=Slope/[S0(1−Slope)].
The subject of the next data set is MCF-7. Description: In vitro bioactivity of Paclitaxel complexed with Motor1, MCF-7. Format: cell-based. Conditions: Paclitaxel 0.6 mM complexed, Paclitaxel 0.002 mM alone, Motor1 5 mM alone.
[19] abbreviates: IV Route, Motor1.ABZ (681 and 3.2 mg/kg).

For `COc1cccc2c1C(=O)c1c(O)c3c(c(O)c1C2=O)C[C@@](O)(C(C)=O)C[C@@H]3O[C@H]1C[C@H](N)[C@H](O)[C@H](C)O1` [Daunomycin], the “revertant colonies, positive control” value with TA98 strain (6 μg/plate) was 361 colonies.
Turning to `CCC(=O)O[C@H]1[C@H](O[C@@H]2[C@@H](C)[C@H](O[C@H]3C[C@@](C)(OC)[C@@H](O)[C@H](C)O3)[C@@H](C)C(=O)O[C@H](CC)[C@@](C)(O)[C@H](O)[C@@H](C)C(=O)[C@H](C)C[C@@]2(C)O)O[C@H](C)C[C@@H]1N(C)C` [erythromycin estolate], the “cell death (AK)” value in the data set with HEK293 [1] came to 49%; with HepG2 [2] it was 100%. Further, the “cell viability (MTS)” value is on record as 10% in the data set on HepG2 [3] and 11% in the data set with HEK293 [4].
As to `CCCS(=O)(=O)c1ccc2nc(NC(=O)OC)[nH]c2c1` [ABZSO2, albendazole sulfone], the “Absolute Bioavailability (%)” value in data set [5] is reported as 81%. For the same compound, the “tmax” value is 2 h in data set [5] (ip, 3.2 mg/kg) and 2 h in data set [6].
On to `CC[C@@]1(O)C(=O)OCc2c1cc1n(c2=O)Cc2cc3ccccc3nc2-1` [S-camptothecin], for which, in data set [7], the Solubility enhancement stood at 580 fold.
As to `CCC[S+]([O-])c1ccc2[nH]c(NC(=O)OC)nc2c1` (centres unmarked) [ABZSO, albendazole sulfoxide], the “Absolute Bioavailability (%)” value in data set [8] (IP Route relative to IV) turned out to be 43%. For the same compound, the “AUC” value in data set [8] (IP Route, Motor1.ABZ (681 and 3.2 mg/kg)) is 6150 ng·h/mL; in data set [9] (setting [19]), 14300 ng·h/mL. The maximum concentration (Cmax) in data set [8] (IP Route, one injection of Motor1.ABZ (681 and 3.2 mg/kg), plasma) came to 2620 ng/mL; in data set [9] (IV Route, one injection of Motor1.ABZ (681 and 3.2 mg/kg), plasma) it was 4340 ng/mL. In addition, the tmax turned out to be 0.25 h in [8] (IP administration, Motor1.ABZ (681 and 3.2 mg/kg)); 0.5 h in [9] (setting [19]). Besides, the plasma concentration was 298 ng/mL and 400 ng/mL and 817 ng/mL and 816 ng/mL and 600 ng/mL in data set [8] (t = 5, individual mice); 2460 ng/mL and 2160 ng/mL and 2910 ng/mL and 2934 ng/mL in data set [8] (t = 15 min, individual mice); 2350 ng/mL and 2650 ng/mL and 2320 ng/mL and 2480 ng/mL in [8] (t = 30 min, individual mice); 1060 ng/mL and 564 ng/mL and 463 ng/mL and 764 ng/mL and 888 ng/mL in data set [8] (t = 2 h, individual mice); 417 ng/mL and 361 ng/mL and 431 ng/mL and 91 ng/mL in data set [8] (t = 4 h, individual mice); 158 ng/mL and 131 ng/mL in [8] (t = 8 h, individual mice). Besides, the plasma concentration in data set [9] (t = 5 min, individual mice (duplicates a, b)) was 2310 ng/mL and 2970 ng/mL and 1930 ng/mL and 1840 ng/mL and 2740 ng/mL and 2630 ng/mL and 2030 ng/mL and 2070 ng/mL and 2330 ng/mL; in data set [9] (t = 15 min, individual mice) it was 3360 ng/mL and 3370 ng/mL and 3100 ng/mL and 2900 ng/mL and 3880 ng/mL and 3580 ng/mL; in [9] (t = 30 min, individual mice) it was 4800 ng/mL and 4210 ng/mL and 4100 ng/mL and 3740 ng/mL and 4240 ng/mL; in data set [9] (t = 2 h, individual mice), 2110 ng/mL and 1590 ng/mL and 2100 ng/mL and 2490 ng/mL and 2810 ng/mL and 2400 ng/mL; in data set [9] (t = 4 h, individual mice), 923 ng/mL and 821 ng/mL and 777 ng/mL and 650 ng/mL; in data set [9] (t = 8 h, individual mice), 404 ng/mL and 433 ng/mL and 510 ng/mL and 475 ng/mL. In addition, the plasma concentration in data set [9] (t = 16 h, individual mice) is 30 ng/mL and 47 ng/mL and 52 ng/mL and 72 ng/mL and 42 ng/mL. The concentration at 15 min in [8] (Swiss Webster, mouse, in vivo, ip, plasma concentration, t = 15 min, individual mice) turned out to be 2820 ng/mL; in data set [9] (Swiss Webster, mouse, in vivo, iv, plasma concentration, t = 15 min, individual mice), 3490 ng/mL. Moreover, the concentration at 30 min in [8] (Swiss Webster, mouse, in vivo, ip, plasma concentration, t = 30 min, individual mice) turned out to be 3050 ng/mL; in [9] (Swiss Webster, mouse, in vivo, iv, plasma concentration, t = 30 min, individual mice), 3960 ng/mL. The concentration at 8 h came to 183 ng/mL in data set [8] (Swiss Webster, mouse, in vivo, ip, plasma concentration, t = 8 h, individual mice) and 330 ng/mL in data set [9] (Swiss Webster, mouse, in vivo, iv, plasma concentration, t = 8 h, individual mice). Besides, the concentration at 16 h in data set [8] (Swiss Webster, mouse, in vivo, ip, plasma concentration, t = 16 h, individual mice) is 44 ng/mL. In addition, the concentration at 5 min in data set [9] (Swiss Webster, mouse, in vivo, iv, plasma concentration, t = 5 min, individual mice (duplicates a, b)) was 2880 ng/mL. Besides, the concentration at 2 h in data set [9] (Swiss Webster, mouse, in vivo, iv, plasma concentration, t = 2 h, individual mice) is 1590 ng/mL. In [9] (Swiss Webster, mouse, in vivo, iv, plasma concentration, t = 4 h, individual mice), this compound displayed a concentration at 4 h of 614 ng/mL.
Take `[N-]=[N+]=[N-]` [sodium azide]: the “revertant colonies, positive control” value in the data set on TA100 [10] is on record as 167 colonies; in data set [11], 232 colonies.
As for `C(=C\c1ccccc1)/CN1CCN(C(c2ccccc2)c2ccccc2)CC1` [Cinnarizine], in data set [12], the Solubility enhancement worked out at 354 fold.
With `CN(C)c1ccc(C(=C2C=CC(=[N+](C)C)C=C2)c2ccc(N(C)C)cc2)cc1` [Crystal Violet Dye, Crystal Violet], the Ka in data set [13] is on record as 5.2 ± 0.8 × 10^6.
Turning to `COC(=O)[C@H](c1ccccc1Cl)N1CCc2sccc2C1` [Clopidogrel], the Solubility enhancement in [12] turned out to be 1220 fold.
For `COc1ccc2nc3cc(Cl)ccc3c(NCCCNCCCl)c2c1` [ICR 191 Acridine], the “revertant colonies, positive control” value with TA1537 strain (−S9) came to 91 colonies.
In the case of `Nc1ccc2cc3ccccc3cc2c1` [2-aminoanthracene], the “revertant colonies, positive control” value was found to be 27 colonies in data set [14], 1345 colonies in the data set on TA100 [15], 1084 colonies with TA98 strain (10 μg/plate) and 122 colonies in the data set on TA1537 strain (+S9).
Take `COc1ccc2c(c1)c(CC(=O)O)c(C)n2C(=O)c1ccc(Cl)cc1` [indomethacin]: the Solubility enhancement in data set [7] stood at 56 fold.
Consider `Cc1c(Cl)cccc1Nc1ccccc1C(=O)O` [tolfenamic acid], for which the Solubility enhancement in data set [7] was 37 fold.
As to hydroxypropyl-β-CD [HP-β-CD], the “interference with the hERG” value on hERG is “significant, non-dose dependent interference”.
For the compound `O=C1N2CN3C(=O)N4CN5C(=O)N6CN7C(=O)N8CN9C(=O)N%10CN%11C(=O)N%12CN%13C(=O)N%14CN1C1C2N2CN%15C(=O)N(CN%16C(=O)N(CN%17C(=O)N(CN%18C(=O)N(CN%19C(=O)N(CN%20C(=O)N(CN1C2=O)C%14C%13%20)C%12C%11%19)C%10C9%18)C8C7%17)C6C5%16)C4C3%15` (centres unmarked) [CB[7]], the Solubility result in [16] was “≈ 20 mM”.
With `Nc1ccc(N)cc1` [benzene-1,4-diamine], the Ka in data set [13] is given as 3.5 ± 0.2 × 10^5.
With `N[C@@H](Cc1ccc(N(CCCl)CCCl)cc1)C(=O)O` [Melphalan], in [12], the Solubility enhancement is reported as 655 fold.
For the compound `NCCCCN` [butane-1,4-diamine], the Ka in data set [13] is given as 1.2 ± 0.1 × 10^5.
Same read-out and setting: for `C[N+](C)(C)CCOC(=O)CCC(=O)OCC[N+](C)(C)C` [succinyl choline] the value was 1.9 ± 0.1 × 10^5.
As to `CC[C@H]1OC(=O)[C@H](C)[C@@H](O[C@H]2C[C@@](C)(OC)[C@@H](O)[C@H](C)O2)[C@H](C)[C@@H](O[C@@H]2O[C@H](C)C[C@H](N(C)C)[C@H]2O)[C@](C)(O)C[C@@H](C)C(=O)[C@H](C)[C@@H](O)[C@]1(C)O` [Erythromycin], the “cell death (AK)” value in the data set on HEK293 [1] was 25%. Moreover, the figures for the “cell viability (MTS)” value in the data set on HepG2 [3] and with HEK293 [4] were 36% and 47%, respectively.
For the compound `CC(=O)O[C@H]1C(=O)[C@@]2(C)[C@H]([C@H](OC(=O)c3ccccc3)[C@]3(O)C[C@H](OC(=O)[C@H](O)[C@@H](NC(=O)c4ccccc4)c4ccccc4)C(C)=C1C3(C)C)[C@]1(OC(C)=O)CO[C@@H]1C[C@@H]2O` [Taxol], the “DNA fragmentation and cell death in comparison to untreated” value in the data set on Hela and in the data set with MCF-7 was “little to no cell death” in each case. In addition, in data set [12], the Solubility enhancement came to 2750 fold. The Ka in data set [17] was found to be 19000 M⁻¹; in data set [18] it was 31000 M⁻¹.
